Patent publication US20050261246A1, “Methods for treating inflammatory and autoimmune diseases” (priority 2004, published 2005)

Key:
tumor growth = settings: cited from earlier work
Japanese encephalitis = settings: flavivirus infection; cited from earlier work
[1] = test system: VEGF production in human cancer cell lines; experiment: VEGF production in human cancer cell lines (ELISA); type: cell-based
Protocol: (A) Effect of SNS on VEGF production was analyzed in two cancer cell lines (both supernatants and cell lysates). (B) The supernatant from control and drug treated H460 cells was analyzed for the level of VEGF (pg/ml). C. […] Statistical analyses were performed using one-way ANOVA.
As discussed above, SNS and pancratastatin were originally synthesized as an anti-cancer agent. The inventors also examined the effect of SNS and pancratastatin on the production of VEGF in human cancer cell lines (FIG. 2). […] This analysis had been performed at least 3-5 times depending on the cell lines and drug used, with statistical analysis performed using one-way ANOVA.

[2] = test system: Encephalitozoan intestinalis; settings: cited from earlier work
[3] = healthy mice; cited from earlier work
[4] = test system: TNF-α production by macrophages; settings: LPS- or bacteria-induced; cited from earlier work
arthritic rats = settings: cited from earlier work

Row | Structure (SMILES) | potency in inhibiting tumor growth relative to SNS (tumor growth) | survival rate (Japanese encephalitis) | VEGF production, narcistatin compared with pancratistatin [1] | effect on VEGF production/secretion ([1]; human cancer cell lines, ELISA) | activity against the parasite [2] | growth rate [3] | TNF-α production by macrophages [4] | footpad volumes, severe chronic inflammation (arthritic rats; day 21 post-CFA challenge, treated vs untreated arthritic rats) | inflammation, acute phase (arthritic rats; given from the time of CFA challenge, day 14 post-CFA challenge)
1 | O=C1N[C@H]2[C@H](O)[C@H](O)[C@@H](O)[C@H](O)[C@@H]2c2cc3c(c(O)c21)OCO3 [pancratistatin] | more potent than SNS in inhibiting tumor growth | up to 100% | comparable inhibition on VEGF production | inhibitory effect | activity against the parasite Encephalitozoan intestinalis |  |  |  | 
2 | O=C1N[C@@H]2C(=C[C@H](O)[C@@H](O)[C@H]2O)c2cc3c(c(O)c21)OCO3 [narciclasine] |  |  |  |  |  | inhibits the growth rate of healthy mice | inhibits lipopolysaccharide (LPS)- or bacteria-induced production of TNF-α by macrophages | no differences in their footpad volumes | able to inhibit inflammation during the acute inflammatory phase
